Several values for one entry are separate records, joined by “and”; a condition that tells them apart may be missing. Equal entries are not always repeated. Inconclusive results and toxic doses are left out.
Tested on: L1210 leukemia ip in BDF1 mice, survival T/C
Assay: NCI In Vivo Anticancer Drug Screen. Data for tumor model L1210 Leukemia (intraperitoneal) in B6D2F1 (BDF1) mice
Settings: endpoint: mean survival time, higher = longer survival
How it was run: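 In this screen, tumor-bearing mice given compound are compared to those given vehicle, and their survival values are reported as a treated-to-control quotient.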

For `OC(CBr)C(O)C(O)C(O)CBr` (configuration not stated), the T/C (dose: 15.6 mg/kg/injection, schedule: Q03HX008 (ip), vehicle: carboxymethylcellulose (CMC)) was 90 % of control, the T/C (dose: 15.6 mg/kg/injection, schedule: Q03HX024 (ip), vehicle: carboxymethylcellulose (CMC)) was 91 % of control and the T/C (dose: 31.2 mg/kg/injection, schedule: Q#A X034 (ip), vehicle: carboxymethylcellulose (CMC)) was 99 % of control. The T/C (dose: 31.25 mg/kg/injection, schedule: Q01DX Z (ip), vehicle: carboxymethylcellulose (CMC)) was 94 % of control, the T/C (dose: 31.3 mg/kg/injection, schedule: Q03HX008 (ip), vehicle: carboxymethylcellulose (CMC)) was 96 % of control and the T/C (dose: 31.3 mg/kg/injection, schedule: Q03HX024 (ip), vehicle: carboxymethylcellulose (CMC)) was 93 % of control. For the same molecule, the T/C (dose: 62.5 mg/kg/injection, schedule: Q01DX001 (ip), vehicle: carboxymethylcellulose (CMC)) was 101 % of control, the T/C (dose: 62.5 mg/kg/injection, schedule: Q01DX009 (ip), vehicle: carboxymethylcellulose (CMC)) was 104 % of control and the T/C (dose: 62.5 mg/kg/injection, schedule: Q01DX017 (ip), vehicle: carboxymethylcellulose (CMC)) was 98 % of control. The T/C (dose: 62.5 mg/kg/injection, schedule: Q03HX008 (ip), vehicle: carboxymethylcellulose (CMC)) was 97 % of control and 98 % of control, the T/C (dose: 62.5 mg/kg/injection, schedule: Q03HX024 (ip), vehicle: carboxymethylcellulose (CMC)) was 87 % of control and the T/C (dose: 62.5 mg/kg/injection, schedule: Q#A X034 (ip), vehicle: carboxymethylcellulose (CMC)) was 95 % of control. The T/C (dose: 63.0 mg/kg/injection, schedule: Q01DX Z (ip), vehicle: carboxymethylcellulose (CMC)) was 103 % of control and 94 % of control, the T/C (dose: 71.0 mg/kg/injection, schedule: Q01DX009 (oral), vehicle: carboxymethylcellulose (CMC)) was 97 % of control and the T/C (dose: 100.0 mg/kg/injection, schedule: Q01DX001 (ip), vehicle: saline) was 98 % of control. The T/C (dose: 100.0 mg/kg/injection, schedule: Q01DX009 (ip), vehicle: other) was 103 % of control, the T/C (dose: 106.0 mg/kg/injection, schedule: Q01DX009 (ip), vehicle: saline) was 100 % of control and the T/C (dose: 107.0 mg/kg/injection, schedule: Q## X006 (oral), vehicle: carboxymethylcellulose (CMC)) was 94 % of control. The T/C (dose: 120.0 mg/kg/injection, schedule: Q01DX001 (ip), vehicle: carboxymethylcellulose (CMC)) was 97 % of control, the T/C (dose: 125.0 mg/kg/injection, schedule: Q01DX001 (ip), vehicle: carboxymethylcellulose (CMC)) was 95 % of control and 92 % of control and the T/C (dose: 125.0 mg/kg/injection, schedule: Q01DX009 (ip), vehicle: carboxymethylcellulose (CMC)) was 104 % of control. The T/C (dose: 125.0 mg/kg/injection, schedule: Q01DX015 (ip), vehicle: saline) was 102 % of control, the T/C (dose: 125.0 mg/kg/injection, schedule: Q01DX Z (ip), vehicle: carboxymethylcellulose (CMC)) was 98 % of control and 92 % of control and the T/C (dose: 125.0 mg/kg/injection, schedule: Q02DX005 (ip), vehicle: carboxymethylcellulose (CMC)) was 100 % of control. For the same molecule, the T/C (dose: 125.0 mg/kg/injection, schedule: Q02DX008 (ip), vehicle: carboxymethylcellulose (CMC)) was 95 % of control, the T/C (dose: 125.0 mg/kg/injection, schedule: Q03HX008 (ip), vehicle: carboxymethylcellulose (CMC)) was 98 % of control and the T/C (dose: 125.0 mg/kg/injection, schedule: Q03HX024 (ip), vehicle: carboxymethylcellulose (CMC)) was 105 % of control. For the same molecule, the T/C (dose: 125.0 mg/kg/injection, schedule: Q04DX003 (ip), vehicle: carboxymethylcellulose (CMC)) was 87 % of control, the T/C (dose: 160.0 mg/kg/injection, schedule: Q01DX009 (ip), vehicle: saline) was 102 % of control and the T/C (dose: 160.0 mg/kg/injection, schedule: Q## X006 (oral), vehicle: carboxymethylcellulose (CMC)) was 95 % of control. For the same molecule, the T/C (dose: 177.0 mg/kg/injection, schedule: Q01DX009 (ip), vehicle: acetone) was 113 % of control, the T/C (dose: 200.0 mg/kg/injection, schedule: Q01DX001 (ip), vehicle: other) was 97 % of control and the T/C (dose: 200.0 mg/kg/injection, schedule: Q01DX001 (ip), vehicle: saline) was 96 % of control. The T/C (dose: 200.0 mg/kg/injection, schedule: Q01DX009 (ip), vehicle: other) was 105 % of control, the T/C (dose: 240.0 mg/kg/injection, schedule: Q01DX009 (ip), vehicle: saline) was 104 % of control and the T/C (dose: 240.0 mg/kg/injection, schedule: Q## X003 (oral), vehicle: carboxymethylcellulose (CMC)) was 96 % of control. For the same molecule, the T/C (dose: 250.0 mg/kg/injection, schedule: Q01DX001 (ip), vehicle: carboxymethylcellulose (CMC)) was 95 % of control and 104 % of control, the T/C (dose: 250.0 mg/kg/injection, schedule: Q01DX009 (ip), vehicle: carboxymethylcellulose (CMC)) was 98 % of control and the T/C (dose: 250.0 mg/kg/injection, schedule: Q01DX015 (ip), vehicle: saline) was 110 % of control. For the same molecule, the T/C (dose: 250.0 mg/kg/injection, schedule: Q01DX Z (ip), vehicle: carboxymethylcellulose (CMC)) was 93 % of control and 106 % of control, the T/C (dose: 250.0 mg/kg/injection, schedule: Q02DX005 (ip), vehicle: carboxymethylcellulose (CMC)) was 95 % of control and the T/C (dose: 250.0 mg/kg/injection, schedule: Q04DX003 (ip), vehicle: carboxymethylcellulose (CMC)) was 97 % of control. For the same molecule, the T/C (dose: 250.0 mg/kg/injection, schedule: Q#A X034 (ip), vehicle: carboxymethylcellulose (CMC)) was 98 % of control, the T/C (dose: 266.0 mg/kg/injection, schedule: Q01DX001 (ip), vehicle: acetone) was 189 % of control and the T/C (dose: 266.0 mg/kg/injection, schedule: Q01DX001 (ip), vehicle: saline) was 102 % of control. For the same molecule, the T/C (dose: 266.0 mg/kg/injection, schedule: Q01DX009 (ip), vehicle: acetone) was 110 % of control, the T/C (dose: 266.0 mg/kg/injection, schedule: Q04DX003 (ip), vehicle: acetone) was 108 % of control and the T/C (dose: 266.0 mg/kg/injection, schedule: Q04DX003 (ip), vehicle: saline) was 100 % of control and 98 % of control. For the same molecule, the T/C (dose: 266.0 mg/kg/injection, schedule: Q08DX002 (ip), vehicle: acetone) was 102 % of control, the T/C (dose: 266.0 mg/kg/injection, schedule: Q08DX002 (ip), vehicle: saline) was 100 % of control and the T/C (dose: 360.0 mg/kg/injection, schedule: Q01DX009 (ip), vehicle: saline) was 104 % of control. For the same molecule, the T/C (dose: 400.0 mg/kg/injection, schedule: Q01DX001 (ip), vehicle: acetone) was 110 % of control, the T/C (dose: 400.0 mg/kg/injection, schedule: Q01DX001 (ip), vehicle: other) was 105 % of control and the T/C (dose: 400.0 mg/kg/injection, schedule: Q01DX001 (ip), vehicle: saline) was 101 % of control and 104 % of control. For the same molecule, the T/C (dose: 400.0 mg/kg/injection, schedule: Q01DX009 (ip), vehicle: acetone) was 113 % of control, the T/C (dose: 400.0 mg/kg/injection, schedule: Q01DX009 (ip), vehicle: other) was 97 % of control and the T/C (dose: 400.0 mg/kg/injection, schedule: Q04DX003 (ip), vehicle: acetone) was 112 % of control. The T/C (dose: 400.0 mg/kg/injection, schedule: Q04DX003 (ip), vehicle: saline) was 102 % of control, the T/C (dose: 400.0 mg/kg/injection, schedule: Q08DX002 (ip), vehicle: acetone) was 103 % of control and the T/C (dose: 400.0 mg/kg/injection, schedule: Q08DX002 (ip), vehicle: saline) was 102 % of control. For the same molecule, the T/C (dose: 480.0 mg/kg/injection, schedule: Q01DX009 (sc), vehicle: carboxymethylcellulose (CMC)) was 93 % of control, the T/C (dose: 480.0 mg/kg/injection, schedule: Q## X008 (ip), vehicle: carboxymethylcellulose (CMC)) was 94 % of control and the T/C (dose: 500.0 mg/kg/injection, schedule: Q01DX001 (ip), vehicle: carboxymethylcellulose (CMC)) was 96 % of control and 100 % of control and 93 % of control. For the same molecule, the T/C (dose: 500.0 mg/kg/injection, schedule: Q01DX009 (ip), vehicle: carboxymethylcellulose (CMC)) was 105 % of control, the T/C (dose: 500.0 mg/kg/injection, schedule: Q01DX015 (ip), vehicle: saline) was 110 % of control and the T/C (dose: 500.0 mg/kg/injection, schedule: Q01DX Z (ip), vehicle: carboxymethylcellulose (CMC)) was 94 % of control and 104 % of control. The T/C (dose: 500.0 mg/kg/injection, schedule: Q02DX005 (ip), vehicle: carboxymethylcellulose (CMC)) was 108 % of control, the T/C (dose: 500.0 mg/kg/injection, schedule: Q04DX003 (ip), vehicle: carboxymethylcellulose (CMC)) was 95 % of control and the T/C (dose: 540.0 mg/kg/injection, schedule: Q01DX009 (ip), vehicle: saline) was 111 % of control. For the same molecule, the T/C (dose: 600.0 mg/kg/injection, schedule: Q01DX001 (ip), vehicle: acetone) was 100 % of control, the T/C (dose: 600.0 mg/kg/injection, schedule: Q01DX001 (ip), vehicle: saline) was 104 % of control and the T/C (dose: 600.0 mg/kg/injection, schedule: Q01DX009 (ip), vehicle: acetone) was 113 % of control. For the same molecule, the T/C (dose: 600.0 mg/kg/injection, schedule: Q04DX003 (ip), vehicle: acetone) was 123 % of control, the T/C (dose: 600.0 mg/kg/injection, schedule: Q04DX003 (ip), vehicle: saline) was 102 % of control and the T/C (dose: 600.0 mg/kg/injection, schedule: Q08DX002 (ip), vehicle: acetone) was 103 % of control. For the same molecule, the T/C (dose: 600.0 mg/kg/injection, schedule: Q08DX002 (ip), vehicle: saline) was 102 % of control, the T/C (dose: 800.0 mg/kg/injection, schedule: Q01DX001 (ip), vehicle: other) was 109 % of control and the T/C (dose: 900.0 mg/kg/injection, schedule: Q01DX001 (ip), vehicle: acetone) was 108 % of control. The T/C (dose: 900.0 mg/kg/injection, schedule: Q01DX001 (ip), vehicle: saline) was 105 % of control, the T/C (dose: 900.0 mg/kg/injection, schedule: Q04DX003 (ip), vehicle: acetone) was 100 % of control and the T/C (dose: 900.0 mg/kg/injection, schedule: Q04DX003 (ip), vehicle: saline) was 105 % of control. For the same molecule, the T/C (dose: 900.0 mg/kg/injection, schedule: Q08DX002 (ip), vehicle: acetone) was 100 % of control, the T/C (dose: 900.0 mg/kg/injection, schedule: Q08DX002 (ip), vehicle: saline) was 94 % of control and the T/C (dose: 1000.0 mg/kg/injection, schedule: Q01DX001 (ip), vehicle: carboxymethylcellulose (CMC)) was 100 % of control and 104 % of control and 94 % of control. The T/C (dose: 1000.0 mg/kg/injection, schedule: Q01DX015 (ip), vehicle: saline) was 121 % of control, the T/C (dose: 1000.0 mg/kg/injection, schedule: Q04DX003 (ip), vehicle: carboxymethylcellulose (CMC)) was 113 % of control and the T/C (dose: 1440.0 mg/kg/injection, schedule: Q## X003 (oral), vehicle: carboxymethylcellulose (CMC)) was 96 % of control.

— PubChem BioAssay AID248 (DTP/NCI, 2004)
